Melting point data for 92 molecules are collected here from a melting point compilation (Tetko et al.; mined from patent text by program, amines drawn as free bases though some values may be those of a salt).

In turn, `CC(C)c1cnc(NC(=O)Nc2cccc(I)c2)s1` had a melting point of 90 to 92 °C.
Molecule `CC(=O)OC1CSC(Oc2cccc(-c3cccnc3Cl)c2)C(OC(C)=O)C1OC(C)=O` (configuration not stated) had a melting point of 146 to 147 °C.
The figure for `O=C(CC(O)=S)c1ccccc1` is 103 to 105 °C; for `COC(=O)[C@H](CO)NC(=O)[C@H](Cc1ccccc1)NC(=O)OC(C)(C)C` it is 90 to 93 °C; for `CC(=NOc1ccc(F)cc1)c1cc(Cl)ccc1NS(=O)(=O)C(F)(F)F` it is 71 to 73 °C.
`CCC(CC)n1nnc2cc(C)c(C)c(N)c21`: the melting point fell in the range of 114 to 117 °C.
The same measure for `COc1ccc2c(c1OC)CCC2=O`: 73 to 74 °C; for `CN1Cc2c(C(=O)OC(C)(C)C)ncn2-c2cccc(Br)c2C1=O`: 207 to 208 °C; for `Cc1cccc(C(C)C)c1NC(=O)CCCCCBr`: 66 to 67 °C.
The figure for `CC(C)c1ccc(S(=O)(=O)Nc2ccc(N3CCC(NCC(O)COc4ccc(O)cc4)CC3)nc2)cc1` (configuration not stated) is 75 to 78 °C.
On to `CC(=O)SCC12CCC3(CC1=CCC1C2CCC2(C)C(C(C)=O)CCC12)OCCO3` (configuration not stated), for which the melting point was in the range of 151 to 153 °C.
For the molecule `CCC(CC)Nc1cc(C(=O)OC)ccc1N1C(=O)CCC1(CO)CCO` (configuration not stated), the melting point was 141 to 143 °C.
The figure for `COc1ccc2[nH]c3c([N+](=O)[O-])cc([N+](=O)[O-])c(Cl)c3c(=O)c2c1` is 253 to 254 °C; for `CC(C)c1ccc(N(Cc2ccc(N(C)C)cc2)C(=O)C2CCOc3ccccc32)cc1` (configuration not stated) it is 110 to 112 °C; for `Cc1cc(C)c(C(=NO)C(F)(F)F)c(C)c1` it is 119 to 125 °C.
In the case of `COC(=O)CCc1cc(C(=O)c2cccc(C(=O)OC)n2)ccc1O`, the melting point was 121 to 122 °C.
For the molecule `CCCOc1ncc(C(C)=O)cc1-c1nc2c(CC)n(C3CN(C(C)=O)C3)nc2c(=O)[nH]1`, the melting point is 229 to 230 °C.
The same measure for `COc1ccc(C(=O)Nc2ccccc2)cc1NCc1ccc(-c2ccccc2)cc1`: 222 to 223 °C; for `COc1ccc(SC2=C(C(=O)NO)CCC2=CCCc2ccccc2)cc1OC`: 44 to 46 °C; for `CCC(=O)Nc1ccc(C(=O)CC)cc1`: 154 to 155 °C.
The same measure for `N#Cc1ccc2[nH]cc(Cc3cccnc3)c2c1`: 125 °C; for `CN1C(=O)C(c2ccccc2)=C(c2cn(C)c3ccccc23)C1=O`: 242 to 246 °C; for `Cc1[nH]c(C(=O)NCCCN(C)C)c(C)c1-c1nc2ccc(C(=O)c3ccccc3)cc2[nH]1`: 238 to 248 °C.
As to `NC(C(=O)N(N)c1ccc2ccccc2c1)c1ccccc1` (configuration not stated), the melting point was 176 to 178 °C.
The figure for `C(=Cc1cncn1Cc1ccccc1)CC(c1ccccc1)c1ccccc1` is 204 to 206 °C; for `COc1ccc(Nc2nc(N)nc3c2ncn3C2CC(F)C(CO)O2)cc1` (configuration not stated) it is 190 to 191 °C; for `CNC(=O)c1cccc(NCC(=O)NCCc2ccc(OC)c(OC)c2)c1` it is 93 to 96.5 °C.
The same measure for `Cc1csc(-c2sc(Br)cc2-c2ccc(F)cc2)c1`: 113 to 116 °C.
Molecule `CCc1cc(=O)c2nc(OC)ccc2[nH]1` displayed a melting point of 279 to 281 °C.
Consider `CCCCn1c(=O)n(CCC)c(=O)c2c3n(nc21)CCCN3`, for which the melting point lay within 147 to 150 °C.
Take `Cc1cc2cc(CN3CCC(CCC(N)=O)CC3)cnc2cc1NC(=O)c1ccc(-c2ccc(F)cc2)cc1`: the melting point fell in the range of 223 to 227 °C.
The same measure for `CNC(=S)c1cnn(-c2ccccc2)c1C#N`: 215 to 217 °C.
The molecule `NCCCCCCCNC(=O)COCC(=O)NC1CCC2C3Cc4ccccc4C2(CCN3)C1` (configuration not stated) yielded a melting point of 83 to 85 °C.
The figure for `OCCCCCCCCCCCCCCCCNCCO` is 80 to 81.2 °C; for `CC(=O)NCCCC(=O)c1ccc(Cl)cc1C(CC(=O)O)c1ccccc1` (configuration not stated) it is 114 to 116 °C; for `CCOC(=O)C(SC)C(=O)Nc1ccc(Br)cc1C` (configuration not stated) it is 85 to 88 °C.
On to `COc1ccc2c(c1)CCc1cc(Nc3ccccc3N)ccc1C2=O`, for which the melting point was determined as 200 °C.
The same measure for `CS(=O)(=O)N1CCN([C@@H](CNCS(=O)(=O)c2ccc(OCc3ccccc3)cc2)C(=O)NO)CC1`: 110 °C; for `CCOC(=O)C1=C(C)NC(N)=C(C(=O)OCC)C1c1ccccc1C(F)(F)F` (configuration not stated): 156 °C; for `CC(=O)c1c(CO[N+](=O)[O-])n(C(C)=O)c(=O)n1C(C)=O`: 135 to 136 °C.
The same measure for `NC(=O)C1CCc2[nH]c3ccc(Cl)c(Cl)c3c2C1` (configuration not stated): 246 to 247 °C; for `CC(C)(O)CC12C=CC=CC1C(=O)NC2=O` (configuration not stated): 104 to 105 °C.
The figure for `COc1ccc(OC)c2c(N=[N+]=[N-])ccnc12` is 106 °C; for `CC(C)C1(C)N=C(c2ncc(C3OCCO3)cc2C(=O)O)NC1=O` (configuration not stated) it is 156 °C.
With `O=[N+]([O-])CS(=O)(=O)c1c[nH]c2ccccc12`, the melting point was in the range of 181 to 182 °C.
The same measure for `Cc1nc(N2CCNCC2)c2nc(-c3ccccc3)cc-2[nH]1`: 236 °C; for `Cc1ccc(-c2oc(C(F)(F)F)nc2-c2ccccc2)cc1S(N)(=O)=O`: 156 to 157 °C; for `CCN1c2ncc(C=O)cc2C(=O)N(C)c2ccc(Cl)nc21`: 199 to 201 °C.
For the molecule `O=C1CCc2ccccc2CN1CO`, the melting point was 109 to 110 °C.
Regarding `O=C(Cc1cccs1)Nc1n[nH]c2cc(Cl)ccc12`, the melting point turned out to be 210 °C.
The same measure for `Cc1cn(C)c(C(=O)O)c1-c1ccccc1[N+](=O)[O-]`: 205 °C; for `COc1cc(COc2ncccc2C=O)ccc1OCc1nc(-c2ccco2)oc1C`: 120 to 121 °C; for `Cc1ccc(-c2cccc(/C=C/C(=O)Nc3ccc(CO)cc3)c2)cc1`: 220 to 223 °C.
The figure for `CC(C)(C)OC(=O)NC1CNc2c(cc(Br)cc2[N+](=O)[O-])C1` (configuration not stated) is 193 to 195 °C.
The figure for `O=C(CCc1cccc2[nH]ccc12)c1ccccc1OCC1CO1` (configuration not stated) is 72 °C.
`Cc1cc(COc2ccc3nc(NC(=O)NCCN4CCOCC4)sc3c2)n(C)n1` registered a melting point of 160 °C.
The same measure for `COc1ccc(-c2cc(C)c3nc(OC)ccc3c2)cc1`: 104 to 106 °C.
With `OC(=S)CCC1CCN(Cc2ccc3c(c2)Nc2nccnc2S3)CC1`, the melting point lay within 110 to 113 °C.
The figure for `COC(=O)c1cc(C(=O)N(C)CC(=O)N(C)C)c2cc(Cc3ccc(F)cc3)cnc2c1O` is 99 to 100 °C.
The figure for `CCOC(=O)c1nn(-c2ccc(C=O)cc2)nc1C` is 97 to 99 °C; for `CC(C)C[C@@H](C=O)NC(=O)[C@H](Cc1c[nH]cn1)NC(=O)[C@H](Cc1ccc2ccccc2c1)NC(=O)OCc1ccccc1` it is 110 to 112 °C.
The molecule `O=c1[nH]c2c(CCO)c3ccccc3n2c2ccccc12` came in with a melting point of 248 to 252 °C.
The figure for `CC(=O)NNc1nc(C(F)(F)F)nc(-c2ccc(F)cc2)c1-c1ccccc1` is 149 to 153 °C; for `CNC(=O)Cc1nn(-c2ccccc2)c(=O)c2c1c1c(Br)cccc1n2C` it is 267 to 268 °C; for `Cc1c(NC(=O)CC(C)(C)C)cc2c(c1C)OC(C)(C)C2c1ccc(CO)cc1` (configuration not stated) it is 162 to 163 °C.
Turning to `N#CC1CN1C(=O)NC(=O)c1cccc([N+](=O)[O-])c1` (configuration not stated), the melting point fell in the range of 156 to 158 °C.
The same measure for `CCCCCCCCCCCCn1nnnc1CCC(=O)Nc1c(OC)cc(OC)cc1OC`: 57 to 61 °C; for `S=C(Nc1cccc2c1[nH]c1ccccc12)SCc1ccccc1`: 66 to 68 °C.
With `Cc1sc2c(c1C(=O)CCN1CCN(c3nsc4ccccc34)CC1)NC(=O)CCC2`, the melting point lay within 146 to 147 °C.
The same measure for `CC(C)(C)C(=O)Oc1ccc(OC(=O)C(C)(C)C)c(C(=O)O)c1`: 159 to 162 °C; for `COc1cc(-c2ccc(NCc3ccccc3)nn2)ccc1OC(F)F`: 136 °C.
Consider `COc1cccc(-c2ccc3c(c2)C(C)(C)C(=O)N3)c1`, for which the melting point lay in the range of 157 to 158 °C.
The same measure for `CC(COc1ccccc1)=C1SC(=O)NC1=O`: 153 to 155 °C; for `CCC(CC)[C@@H](CO)NS(=O)(=O)c1ccc(Cl)s1`: 115 to 118 °C.
The figure for `COC(=O)c1cc(NC(=N)N)c(NC(C)=O)c(Br)c1O` is 238 to 240 °C.
Turning to `CC(=O)C1CCC2C3CCC4=CC(=O)C=CC4(C)C3C(O)CC12CO[N+](=O)[O-]` (configuration not stated), the melting point fell in the range of 162 to 164 °C.
The same measure for `O=S1(=O)O[C@H](COCc2ccccc2)CC[C@@H](COCc2ccccc2)O1`: 57 to 59 °C; for `Cn1c(/C=C/C(=O)O)c(-c2ccccc2)c2ccccc2c1=O`: 266 to 268 °C.
The same measure for `O=c1[nH]c2sc(Cl)c(C3CC3)c2[nH]c1=O`: above 260 °C; for `O=C(O)C(=O)c1ccc(OC/C=C/c2ccccc2)cc1`: 103 to 105 °C.
For `CCCOc1cc(OCCC)c2c(C)c(CCCl)c(=O)oc2c1`, the melting point is 99 to 101 °C.
The figure for `CCS(=O)(=O)Nc1cc(-c2ncnc(Cl)c2Cl)c(F)cc1C#N` is 149 to 150 °C; for `O=C(NC(Cc1c[nH]c2ccccc12)C(=O)OCc1ccc(Cl)cc1)c1ccccc1` (configuration not stated) it is 119 °C; for `CCCCCCCCCCCCCCC(=O)C(=O)NCCCC(=O)OCC` it is 63 to 64 °C.
The figure for `CN1CCN2c3ccc(Cl)cc3C(c3ccco3)=NCC2C1` (configuration not stated) is above 240 °C.
The same measure for `CNC(=S)C1(c2cccnc2)CCCCS1=O` (configuration not stated): 228 °C.
In the case of `CN=Cc1cnc(-c2ccccc2Cl)s1`, the melting point is 81 to 83 °C.
The figure for `CCN(C)C1=NS(=O)(=O)c2cccc(OC)c21` is 154 to 156 °C; for `CS(=O)(=O)Cc1cc(N)ccc1N1C(=O)c2ccc(Cl)cc2C1=O` it is 228 to 230 °C.
The same measure for `CC(Cn1ncnn1)n1nnc2cc3c(=O)n(CC4CC4)nnc3cc2c1=O` (configuration not stated): 134 to 136 °C; for `O=C1COCCCOC(=O)COCCCO1`: 135 to 136 °C; for `C(=Cc1ccccc1)CN1CCN(C2c3ccccc3Sc3ccccc32)CC1`: 115 to 117 °C.
